The record followed here is PubChem BioAssay AID1919013 (Molecular Pharmacology Branch, DTP, NCI, 2023).

The test system of the assay is LG0703-F498-PDC complex spheroid growth. As to the kind of experiment: Anticancer human tumor LG0703-F498-PDC patient-derived lung adenocarcinoma cell line growth inhibition [AhR]. Conditions: for viability, T/C: stronger effect = lower value. In outline: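 Spheroids combined tumor cells with HUVEC endothelial cells and human MSCs as stroma. AhR antagonists were paired with standard or investigational drugs, each dosed in half-log steps down from near clinical Cmax, or from 10 microM where Cmax was unknown.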

Where [1] appears, read: curve of first compound, second compound 0.1 µM.
The mark [2] stands for this setting: curve of first compound, second compound 0.316 µM.
Where [3] appears, read: curve of first compound, second compound 1 µM.
[4] abbreviates: curve of first compound, second compound 3.16 µM.
Setting [5] is: curve of first compound, second compound 10 µM.
[6] abbreviates: second compound 0.1 µM, first compound 0.0316 µM.
[7] abbreviates: second compound 0.1 µM, first compound 0.1 µM.
Setting [8] is: second compound 0.1 µM, first compound 0.316 µM.
Setting [9] is: second compound 0.1 µM, first compound 1 µM.
Setting [10] is: second compound 0.1 µM, first compound 3.16 µM.
The mark [11] stands for this setting: second compound 0.1 µM, first compound 10 µM.
The mark [12] stands for this setting: second compound 0.316 µM, first compound 0.0316 µM.
Setting [13] is: second compound 0.316 µM, first compound 0.1 µM.
The mark [14] stands for this setting: second compound 0.316 µM, first compound 0.316 µM.
[15] abbreviates: second compound 0.316 µM, first compound 1 µM.
[16] abbreviates: second compound 0.316 µM, first compound 3.16 µM.
Setting [17] is: second compound 0.316 µM, first compound 10 µM.
The mark [18] stands for this setting: second compound 1 µM, first compound 0.0316 µM.
Where [19] appears, read: second compound 1 µM, first compound 0.1 µM.
Setting [20] is: second compound 1 µM, first compound 0.316 µM.
Setting [21] is: second compound 1 µM, first compound 1 µM.
The mark [22] stands for this setting: second compound 1 µM, first compound 3.16 µM.
Setting [23] is: second compound 1 µM, first compound 10 µM.
[24] abbreviates: second compound 3.16 µM, first compound 0.0316 µM.
Setting [25] is: second compound 3.16 µM, first compound 0.1 µM.
The mark [26] stands for this setting: second compound 3.16 µM, first compound 0.316 µM.
Setting [27] is: second compound 3.16 µM, first compound 1 µM.
Setting [28] is: second compound 3.16 µM, first compound 3.16 µM.
Setting [29] is: second compound 3.16 µM, first compound 10 µM.
[30] abbreviates: second compound 10 µM, first compound 0.0316 µM.
[31] abbreviates: second compound 10 µM, first compound 0.1 µM.
[32] abbreviates: second compound 10 µM, first compound 0.316 µM.
Where [33] appears, read: second compound 10 µM, first compound 1 µM.
The mark [34] stands for this setting: second compound 10 µM, first compound 3.16 µM.
Setting [35] is: second compound 10 µM, first compound 10 µM.

Where “and” joins values, the source holds several entries; their conditions need not be identical. Equal entries are not always repeated. Some results are limits rather than exact numbers.
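Note: luminescence taken as a proxy for viable cell amount.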
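Throughout, for viability, T/C: percent of DMSO vehicle control where 100% means growth equal to vehicle.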

For the compound `O=C(C=Cc1cccc(S(=O)(=O)Nc2ccccc2)c1)NO` + CC(CO)NC(=O)c1cc(-c2ccc(Cl)cc2)nn(-c2cnn(C)c2)c1=O, the IC50 reads like this: under setting [1], 607 nM; under setting [2], 636 nM; under setting [3], 667 nM; under setting [4], 690 nM; under setting [5], 727 nM. Besides, the viability, T/C runs as follows: under setting [6], 106%; under setting [7], 112%; under setting [8], 77.3%; under setting [9], 28.5%; under setting [10], 7%; under setting [11], 1.6%. For the same compound, the viability, T/C was 105% under setting [12]; 101% under setting [13]; 77% under setting [14]; 32.4% under setting [15]; 7.34% under setting [16]; 1.04% under setting [17]. In addition, the viability, T/C is, setting by setting: under setting [18], 102%; under setting [19], 106%; under setting [20], 77.8%; under setting [21], 34.6%; under setting [22], 8.18%; under setting [23], 1.73%. In addition, the viability, T/C reads like this: under setting [24], 105%; under setting [25], 108%; under setting [26], 74.4%; under setting [27], 39%; under setting [28], 7.73%; under setting [29], 1.63%. In addition, the viability, T/C under setting [30] was 101%; the viability, T/C under setting [31] is 121%; the viability, T/C under setting [32] was 81.8%; the viability, T/C under setting [33] was 37.6%; the viability, T/C under setting [34] is 8.76%; the viability, T/C under setting [35] was 1.23%.

For `O=C(c1cc(Cc2n[nH]c(=O)c3ccccc23)ccc1F)N1CCN(C(=O)C2CC2)CC1` + Cc1cncc(-c2nc(NCCc3c[nH]c4ccccc34)c3ncn(C(C)C)c3n2)c1, the IC50 under setting [1] is greater than 10000 nM; the half-maximal inhibitory concentration (IC50) under setting [2] is greater than 10000 nM; the concentration for half-maximal inhibition (IC50) under setting [3] is greater than 10000 nM; the IC50 under setting [4] is less than 31.6 nM; the IC50 under setting [5] is less than 31.6 nM. In addition, the viability, T/C was 105% under setting [6]; 98.5% under setting [7]; 99.3% under setting [8]; 84.1% under setting [9]; 93.4% under setting [10]; 72.5% under setting [11]. The viability, T/C under setting [12] is 90.7%; the viability, T/C under setting [13] is 103%; the viability, T/C under setting [14] was 95%; the viability, T/C under setting [15] was 95.5%; the viability, T/C under setting [16] is 89.4%; the viability, T/C under setting [17] is 80.8%. The viability, T/C runs as follows: under setting [18], 108%; under setting [19], 95.9%; under setting [20], 99.8%; under setting [21], 99.4%; under setting [22], 98.3%; under setting [23], 78.1%. In addition, the viability, T/C was 40.2% under setting [24]; 43.1% under setting [25]; 51.7% under setting [26]; 46.2% under setting [27]; 40% under setting [28]; 43% under setting [29]. The viability, T/C was 0.8% under setting [30]; 0.83% under setting [31]; 0.8% under setting [32]; 0.79% under setting [33]; 0.66% under setting [34]; 1.47% under setting [35].

As for `CC(C)CC(NC(=O)C(Cc1ccccc1)NC(=O)c1cnccn1)B(O)O` (stereo not drawn) + Cc1cncc(-c2nc(NCCc3c[nH]c4ccccc34)c3ncn(C(C)C)c3n2)c1, the IC50 reads like this: under setting [1], 4.06 nM; under setting [2], 4.36 nM; under setting [3], 3.62 nM; under setting [4], 1.12 nM; under setting [5], less than 0.949 nM. Also, the viability, T/C by setting is: (second compound 0.1 µM, first compound 0.000949 µM) 90.8%; (second compound 0.1 µM, first compound 0.003 µM) 65.4%; (second compound 0.1 µM, first compound 0.00949 µM) 6.78%; (second compound 0.1 µM, first compound 0.03 µM) 0.57%; (second compound 0.1 µM, first compound 0.0949 µM) 0.07%; (second compound 0.1 µM, first compound 0.3 µM) 0.18%. The viability, T/C reads like this: (second compound 0.316 µM, first compound 0.000949 µM) 101%; (second compound 0.316 µM, first compound 0.003 µM) 71.3%; (second compound 0.316 µM, first compound 0.00949 µM) 5.68%; (second compound 0.316 µM, first compound 0.03 µM) 0.52%; (second compound 0.316 µM, first compound 0.0949 µM) 0.13%; (second compound 0.316 µM, first compound 0.3 µM) 0.41%. The viability, T/C (second compound 1 µM, first compound 0.000949 µM) is 115%; the viability, T/C (second compound 1 µM, first compound 0.003 µM) was 58.9%; the viability, T/C (second compound 1 µM, first compound 0.00949 µM) was 4.01%; the viability, T/C (second compound 1 µM, first compound 0.03 µM) is 0.74%; the viability, T/C (second compound 1 µM, first compound 0.0949 µM) is 0.04%; the viability, T/C (second compound 1 µM, first compound 0.3 µM) is 0.35%. In addition, the viability, T/C runs as follows: (second compound 3.16 µM, first compound 0.000949 µM) 52.8%; (second compound 3.16 µM, first compound 0.003 µM) 33.7%; (second compound 3.16 µM, first compound 0.00949 µM) 1.21%; (second compound 3.16 µM, first compound 0.03 µM) 0.06%; (second compound 3.16 µM, first compound 0.0949 µM) 0.5%; (second compound 3.16 µM, first compound 0.3 µM) 0.67%. Further, the viability, T/C reads like this: (second compound 10 µM, first compound 0.000949 µM) 1.32%; (second compound 10 µM, first compound 0.003 µM) 0.98%; (second compound 10 µM, first compound 0.00949 µM) 0.8%; (second compound 10 µM, first compound 0.03 µM) 0.13%; (second compound 10 µM, first compound 0.0949 µM) 1.1%; (second compound 10 µM, first compound 0.3 µM) 1.18%.

`CCc1c2c(nc3ccc(O)cc13)-c1cc3c(c(=O)n1C2)COC(=O)[C@]3(O)CC`: the viability, T/C is, setting by setting: (compound 0.000949 µM) 95.1% and 92.3% and 101%; (compound 0.003 µM) 87% and 101% and 106%; (compound 0.00949 µM) 95.9% and 86.3% and 92.1%; (compound 0.03 µM) 62.3% and 66% and 69.1%; (compound 0.0949 µM) 47.3% and 57% and 58.6%; (compound 0.3 µM) 30.2% and 32.5% and 34.4%. Besides, the 50% inhibitory concentration (IC50) (curve of compound) is 67.4 nM and 111 nM and 123 nM.

`CC(CO)NC(=O)c1cc(-c2ccc(Cl)cc2)nn(-c2cnn(C)c2)c1=O` (stereo not drawn): the viability, T/C is 87.9% [middle of 21 runs] (compound 1 µM) and 77% [middle of 19 runs] (compound 10 µM). In addition, the IC50 (compound alone, run of 05/31/2022) is greater than 10000 nM.

Consider `Cc1ccccc1N=Nc1ccc(NC(=O)c2ccnn2C)c(C)c1`, for which the viability, T/C (compound 1 µM) is 90.5% [middle of 20 runs] and the viability, T/C (compound 3.16 µM) was 85.7% [middle of 20 runs]. The IC50 (compound alone, run of 06/14/2022) is greater than 10000 nM.
